Results published in PMC5084075 (ACS Central Science, 2016).
Like-named read-outs stand apart in the source and are kept apart here.

What was measured:
[1] = in vitro; parameters: cytotoxicity counter-screen on HEK293 cells; settings: human, hek293 cells; read-out: HEK 293 / IC50nM
Description: (§1) To confirm the promise of the two starting points OSM-S-5 and -6, they were evaluated against 3D7 (drug-sensitive) and K1 (chloroquine resistant) strains of Plasmodium falciparum in a whole cell assay and against HEK-293 cells as a cytotoxicity marker (Table SB1, Biological Protocols; tables with the prefix “SB” may be found in the Supporting Information). Biological data may be browsed in a static data set taken as a snapshot for this paper (Data Sets S1 (Excel), S2 (SDF)), online in a database constructed through periodic batch uploads,[68] or in a “living database” to which may be added future data;[69] the latter may be visualized in a web browser[70] using an open source system that was recently deployed in the Wikipedia Chemical Structure Explorer,[71] or the data may be downloaded and visualized offline with proprietary (Figure S4)[72] or open source (Figure S5)[73] tools). The evaluation was performed in three different institutions using different assays and widely employed controls; controls are important to assess reproducibility and interassay variability[74] but also to minimize possible bias in evaluating compounds where there are pre-existing data from other researchers already in the public domain (Figure S6).[75]

[2] = tested on: T1, Plasmodium falciparum K1 (chloroquine resistant); test: microbe, parasite or virus in culture; parameters: species or system P. falciparum blood stage culture; whole-cell asexual blood stage P. falciparum growth inhibition
T1 construct: K1
Description: as §1

[3] = tested on: T2, Plasmodium falciparum 3D7; test: microbe, parasite or virus in culture; parameters: species or system P. falciparum blood stage culture; whole-cell asexual blood stage P. falciparum growth inhibition; settings: Avery assay, read-out: 3D7 / IC50nM
T2 construct: 3D7
Description: as §1

[4] = target: T3, PfDHODH (Plasmodium falciparum, UniProt Q08210); test: biochemical; parameters: PfDHODH enzyme inhibition IC50; settings: read-out: DHODH
T3 sequence (Q08210 1-569): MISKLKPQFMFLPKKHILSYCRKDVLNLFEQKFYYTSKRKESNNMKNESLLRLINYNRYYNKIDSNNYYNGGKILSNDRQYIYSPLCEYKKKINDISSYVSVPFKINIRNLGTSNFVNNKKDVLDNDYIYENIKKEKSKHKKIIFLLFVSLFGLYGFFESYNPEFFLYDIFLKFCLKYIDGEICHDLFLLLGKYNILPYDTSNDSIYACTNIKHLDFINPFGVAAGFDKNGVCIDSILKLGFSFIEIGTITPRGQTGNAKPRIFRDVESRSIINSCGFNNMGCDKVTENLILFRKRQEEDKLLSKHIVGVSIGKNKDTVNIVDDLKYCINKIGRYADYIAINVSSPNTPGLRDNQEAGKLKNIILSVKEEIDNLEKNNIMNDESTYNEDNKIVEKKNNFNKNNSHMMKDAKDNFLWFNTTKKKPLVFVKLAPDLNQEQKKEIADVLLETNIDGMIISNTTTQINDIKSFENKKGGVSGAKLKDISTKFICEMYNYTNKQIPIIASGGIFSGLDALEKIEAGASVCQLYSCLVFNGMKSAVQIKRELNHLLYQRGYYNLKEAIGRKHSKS
Description: (§2) The potency of the near neighbor set led to an in silico target prediction study being performed on OSM-S-39 (Text S11). The method employed a naive Bayes statistical model identifying molecular structural features of small molecules with protein targets, using the ChEMBL database. Similar statistical approaches based on known activities of compounds have been successfully applied to identify targets of antitubercular compounds.[112]−[114] A total of 1,287 proteins were included for which at least 50 active compounds were known with activities <10 μM, with the other compounds in the database comprising the inactives. After the OSM compounds were scored against each target, the scores obtained were standardized by comparison with scores obtained through comparison with a random set of >10K compounds. The prediction list was culled for proteins relevant to malaria (3D7 proteome), and the analysis gave as the most likely candidate targets, in order of significance, carboxy-terminal domain RNA polymerase II polypeptide A small phosphatase 1 (Q8I3U9), dihydroorotate dehydrogenase (DHODH, Q08210), SUMO-activating enzyme subunit 2 (Q8I553) and 1 (Q8IHS2), and cyclin-dependent kinase 1 (P61075). […] A line of inquiry remaining open is the equivalent assays against the other targets identified in the in silico prediction.

[5] = target: T4, hERG (human ether-à-go-go-related gene ion channel) (Homo sapiens, UniProt Q12809); test: cell-based; parameters: hERG channel inhibition counterscreen; settings: read-out: hERG pIC50 (converted)
T4 construct: gene KCNH2
T4 sequence (Q12809 whole entry): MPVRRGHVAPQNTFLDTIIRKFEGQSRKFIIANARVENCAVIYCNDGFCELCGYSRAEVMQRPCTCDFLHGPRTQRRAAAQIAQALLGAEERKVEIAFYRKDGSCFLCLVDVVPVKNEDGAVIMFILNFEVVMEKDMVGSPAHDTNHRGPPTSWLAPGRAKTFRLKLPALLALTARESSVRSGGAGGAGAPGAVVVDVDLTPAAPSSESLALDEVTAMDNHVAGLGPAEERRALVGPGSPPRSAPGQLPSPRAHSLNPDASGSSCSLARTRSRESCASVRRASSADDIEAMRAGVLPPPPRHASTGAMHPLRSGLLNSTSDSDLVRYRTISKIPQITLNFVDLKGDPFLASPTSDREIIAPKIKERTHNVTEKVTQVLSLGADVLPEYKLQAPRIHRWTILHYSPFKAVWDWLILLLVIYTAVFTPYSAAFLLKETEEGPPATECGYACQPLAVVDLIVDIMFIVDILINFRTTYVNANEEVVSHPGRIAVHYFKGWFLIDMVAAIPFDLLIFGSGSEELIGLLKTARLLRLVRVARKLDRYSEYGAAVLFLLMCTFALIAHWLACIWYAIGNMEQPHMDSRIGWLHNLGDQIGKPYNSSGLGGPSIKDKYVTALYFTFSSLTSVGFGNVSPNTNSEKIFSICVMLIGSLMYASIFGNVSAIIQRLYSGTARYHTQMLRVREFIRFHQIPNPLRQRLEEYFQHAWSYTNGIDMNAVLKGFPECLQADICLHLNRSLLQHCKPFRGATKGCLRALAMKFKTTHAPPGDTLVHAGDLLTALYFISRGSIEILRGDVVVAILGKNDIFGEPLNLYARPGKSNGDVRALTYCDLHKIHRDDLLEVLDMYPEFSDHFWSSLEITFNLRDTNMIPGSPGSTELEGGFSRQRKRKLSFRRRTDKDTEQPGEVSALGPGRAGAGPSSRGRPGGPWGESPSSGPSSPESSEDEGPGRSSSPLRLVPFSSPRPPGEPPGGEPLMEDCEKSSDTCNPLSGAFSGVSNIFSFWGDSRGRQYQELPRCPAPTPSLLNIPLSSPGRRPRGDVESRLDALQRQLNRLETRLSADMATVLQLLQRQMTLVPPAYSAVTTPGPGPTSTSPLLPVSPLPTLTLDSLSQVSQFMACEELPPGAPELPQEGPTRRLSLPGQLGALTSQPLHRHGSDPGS
Description: There is increasing awareness of the importance for drug candidates of inhibition of hERG (the human ether-à-go-go-related gene ion channel), which is sensitive to blockade by many drug-like structures. Such blockage has led to a number of prominent postmarketing withdrawals.[103] Regulators are sensitive to any hERG activity, and a hERG counterscreen is often now run early in hit characterization and series prioritization.

[6] = tested on: HEK293; test: cells; parameters: cytotoxicity counter-screen on HEK293 cells; settings: Homo sapiens, cytotoxicity
Description: as §1

[7] = target: T3, PfDHODH; test: biochemical; parameters: PfDHODH enzyme inhibition IC50; settings: read-out: >50
[8] = target: T3, PfDHODH; test: biochemical; parameters: PfDHODH enzyme inhibition assay, IC50; settings: read-out: DHODH
Description: as §2

[9] = tested on: Plasmodium falciparum mature stage V gametocytes (DGFA); test: microbe, parasite or virus in culture; parameters: dual gamete formation assay, inhibition of male and female gamete formation; settings: 24 h
Description: (§3) The discrepancy in the data arising from these two gametocyte assays may arise from the slightly different cell biology assayed (stage IV/V gametocytes vs stage V mature gametocytes) or most likely is a function of the relative compound exposure times (96 h vs 24 h).

[10] = tested on: Plasmodium falciparum late stage (IV-V) gametocytes; test: microbe, parasite or virus in culture; parameters: species or system P. falciparum gametocytes; late stage (IV-V) gametocyte viability assay; settings: 96 h, read-out: Late Stage Gametocyte (Avery)
Description: as §3, with “There are relatively few compounds effective against the gametocyte stage of the parasite,[12],[13] though such compounds are important in the prevention of disease transmission. Four compounds found to be active in the asexual assay were evaluated against late stage (IV–V) gametocytes. […] The” for “The”

[11] = in vitro; parameters: HepG2 cytotoxicity beside the liver stage assay; settings: human, hepg2 cells
Description: (§4) Of particular note is the striking potency of the nontoxic compound OSM-S-38, which may at this level provide protection from malaria to people who have been treated with the compound after an infectious bite.

[12] = tested on: T5, Plasmodium falciparum Pfal (3D7); test: microbe, parasite or virus in culture; parameters: species or system erythrocytes; P. falciparum asexual blood-stage whole-cell growth inhibition, IC50; settings: 3D7, Erythrocyte, lab named in column head
T5 construct: 3D7
Description: as §1

[13] = tested on: T6, Plasmodium falciparum Pfal (K1); test: microbe, parasite or virus in culture; parameters: species or system erythrocytes; P. falciparum asexual blood-stage whole-cell growth inhibition, IC50; settings: K1, Erythrocyte, lab named in column head
T6 construct: K1
Description: as §1

[14] = in vitro; parameters: plasma stability, half-life and per cent remaining; settings: plasma; plasma Mouse; read-out: t1/2 plasma Mouse
Description: (§5) Representative compounds from both subseries were evaluated in an oral in vivo mouse trial (Data Set S22). The original starting points OSM-S-5 and -6 (Figure 2) were chosen along with NN representative OSM-S-35 (Figure 4). […] It is plausible that at least some of the arylpyrrole ester compounds would be degraded by general hydrolysis during absorption, and this could explain their inactivity in the mouse model despite their more favorable (although still high) cLogP values. […] Esterase activity is higher in rodents than in other species,[102] as confirmed by using p-nitrophenol acetate as a control compound in this assay.

[15] = tested on: Plasmodium falciparum Pfal (strain not named in column head); test: microbe, parasite or virus in culture; parameters: species or system P. falciparum blood stage culture; whole-cell asexual blood stage P. falciparum growth inhibition
Description: as §1

[16] = in vitro; parameters: stability in mouse plasma; settings: plasma; mouse plasma; read-out: t1/2 plasma Mouse
Description: as §5

[17] = tested on: Plasmodium berghei Pb Liver Stage; test: microbe, parasite or virus in culture; parameters: P. berghei sporozoite liver stage development inhibition, IC50; settings: HepG2
Description: as §4

[18] = in vitro; parameters: metabolic stability in human liver microsomes, LC-MS, NADPH, 0.4 mg/mL protein; settings: liver microsomes, human liver microsomes
Description: (§6) The two original GSK hits (OSM-S-5 and -6) and six NN compounds were evaluated for their kinetic solubility in phosphate buffer and their metabolic stability in human liver microsomes (Table SB5, Data Sets S20 and S21).

[19] = in vitro; parameters: microsomal stability with NADPH, LC-MS, half-life and CLint; settings: human, liver microsomes, HLM
Description: as §6

[20] = in vitro; parameters: metabolic stability in mouse liver microsomes, LC-MS, NADPH, 0.4 mg/mL protein; settings: liver microsomes, mouse liver microsomes
Description: as §6

[21] = tested on: Plasmodium berghei Pb Liver Stage; test: microbe, parasite or virus in culture; parameters: liver stage assay, sporozoites in liver cells; settings: HepG2
Description: as §4

[22] = Avery assay, read-out: K1 / IC50nM

CCc1nc(N)nc(N)c1-c1ccc(Cl)cc1 [Pyrimethamine]
CC50 [1]: 13900 nM | IC50 [2, 22]: 11900 nM | IC50 [3]: 11 nM

Cc1cc(/C=C2\SC(=Nc3ccccc3)NC2=O)c(C)n1-c1ccccc1 [OSM-S-35]
IC50 [4]: > 50000 nM | IC50 [5]: > 31600 nM | inhibition at 40 µM [6]: 57%

CC(C)=CCC1=C(O)C(=O)c2ccccc2C1=O [Lapachol]
IC50 [7]: > 100000 nM

Cc1cc(/C=C2\SC(=Nc3ccccc3)N(C3CCCC3)C2=O)c(C)n1-c1ccc(C(F)(F)F)cc1 [OSM-S-54]
IC50 [8]: > 50000 nM

Cc1cc(/C=C2\S/C(=N\c3ccccc3)NC2=O)c(C)n1-c1ccc(C(F)(F)F)cc1 [OSM-S-38]
inhibition at 1 µM ([9]; female gametocytes): 20.5% | inhibition at 1 µM ([9]; male gametocytes): 26.5% | IC50 [4]: > 50000 nM | IC50 [10]: 4 nM | CC50 [11]: > 50000 nM

CC(=O)N(C1=NC(=O)/C(=C/c2cc(C)n(-c3ccc(F)cc3)c2C)S1)c1ccccc1 [OSM-S-9]
IC50 [4]: > 50000 nM | IC50 [10]: 28 nM

CN(Cc1cnc2nc(N)nc(N)c2n1)c1ccc(C(=O)N[C@@H](CCC(=O)O)C(=O)O)cc1 [Methotrexate]
CC50 [1]: 11.8 nM | IC50 [2, 22]: 25 nM | IC50 [3]: 25.8 nM

Cc1cc(C(=O)OCC(N)=O)c(C)n1-c1ccc(F)cc1 [OSM-S-5]
inhibition at 1 µM ([9]; female gametocytes): 13.5% | inhibition at 1 µM ([9]; male gametocytes): 5.1% | IC50 ([12]; read-out: Pfal IC50 (Batra)): 581 nM | IC50 ([13]; read-out: Pfal (K1) IC50 (Batra)): 641 nM | IC50 [4]: > 50000 nM | IC50 [5]: > 31600 nM | half-life [14]: 1.9 h | IC50 ([15]; Batra assay): 581 nM | IC50 ([2]; Batra assay, read-out: Pfal (K1) IC50 (Batra)): 641 nM | half-life [16]: 1.9 h

Cc1cc(/C=C2\SC(=Nc3ccccc3)N(c3ccccc3)C2=O)c(C)n1-c1ccc(C(F)(F)F)cc1 [OSM-S-52]
IC50 [8]: > 50000 nM

Cc1cc(/C=C2\S/C(=N\c3ccccc3)NC2=O)c(C)n1-c1cc(C(F)(F)F)cc(C(F)(F)F)c1 [OSM-S-39]
inhibition at 1 µM ([9]; female gametocytes): 31.3% | inhibition at 1 µM ([9]; male gametocytes): 36.1% | IC50 [4]: > 50000 nM | IC50 [10]: 2.6 nM

COc1ccc(-n2c(C)cc(/C=C3\SC(=Nc4ccccc4)NC3=O)c2C)cc1 [OSM-S-111]
inhibition at 1 µM ([9]; male gametocytes): 21.1% | IC50 ([12]; read-out: Pfal IC50 (Guy)): 147 nM | IC50 ([13]; read-out: Pfal (K1) IC50 (Guy)): 204 nM | IC50 [17]: 345 nM | IC50 ([15]; Guy assay): 147 nM | IC50 ([2]; Guy assay, read-out: Pfal (K1) IC50 (Guy)): 204 nM | microsomal CLint ([18]; read-out: CLint HLM (Monash)): 8 µL/min/mg | half-life ([18]; read-out: t1/2 HLM (Monash)): 3.45 h | IC50 [10]: 686 nM | microsomal CLint ([19]; read-out: CLint HLM (Monash)): 8 µL/min/mg | half-life ([19]; read-out: t1/2 HLM (Monash)): 3.45 h | inhibition at 40 µM [6]: 32% | microsomal CLint ([20]; read-out: 0.4 / CLint, in vitro / (mL/min/mg protein)): 0.0371 mL/min/mg | half-life ([20]; read-out: Protein Conc. (mg/mL): / Degradation half-life /): 0.777 h | CC50 [11]: 4390 nM | IC50 [21]: 345 nM

COc1ccc2nc3cc(Cl)ccc3c(Nc3cc(CN4CCCC4)c(O)c(CN4CCCC4)c3)c2n1 [Pyronaridine]
CC50 [1]: 7700 nM | IC50 [2, 22]: 21.3 nM | IC50 [3]: 15.2 nM

Cc1cc(/C=C2\SC(=Nc3ccccc3)N(CC#N)C2=O)c(C)n1-c1ccc(C(F)(F)F)cc1 [OSM-S-42]
IC50 [8]: > 50000 nM

COc1ccc(-n2ccnc2SCC(=O)Nc2cc(C(F)(F)F)ccc2Cl)c(OC)c1 [TCMDC-123822]
IC50 [7]: 48.2 nM
